Reference: patent US11458189B2, “Cytoprotective drugs” (BALMES TRANSPLANTATION, priority 2017, dated 2022)
Starred links: 1 amine or outer side, 2 acyl side, 3 side chain; linkers in the order of their positions; H or OH if unused. Positions of bridges follow the written chain, without caps; N, C: chain ends. Non-standard residues stand in square brackets, D forms with d. Residues, ends and D or L forms follow the SMILES beside them. *: point of attachment. hTyr(3S-OH,4S-OH,3'-OSO3H) = N[C@H](C(=O)O)[C@H](O)[C@@H](O)c1ccc(O)c(OS(=O)(=O)O)c1; Orn(4R-OH,5R-OH) = O=C([C@H](C[C@@H](O)[C@@H](O)N[*:3])N[*:1])[*:2]; Pro(3S-OH,4S-Me) = C[C@H]1CN[C@H](C(=O)O)[C@H]1O; X1 = CCCCCOc1ccc(-c2cc(-c3ccc(C(=O)*)cc3)no2)cc1; Gln(3R-OH) = NC(=O)C[C@@H](O)[C@H](N)C(=O)O; Hyp = O=C(O)[C@@H]1C[C@@H](O)CN1

Test system: Human Cardiac Microvascular Endothelial Cells (HCMEC)
Assay: Oxygen and glucose deprivation followed by replenishment, cell survival (calcein AM), HCMEC
Type: cell-based
Method: Anidulafungin and micafungin were tested on Human Renal Glomerular Endothelial Cells (HRGEC, Innoprot P10665), on Human Renal Proximal Tubular Epithelial Cells (HRPTEpiC, Innoprot P10662), on Human Astrocytes (HA, caltag SC-1800), on Human Cardiac Microvascular Endothelial Cells (HCMEC, Caltag SC-6000), on Human Hepatic Sinusoidal Endothelial Cells (HHSEC, Caltag SC-5000), on Rat Primary Kidney Glomerular Endothelial cells (Cellbiologics, RN-6014G) and on Bovine Brain Microvascular Endothelial Cells (BBMEC, Caltag SC-B100).
In a first phase, these isolated, purified and cryopreserved cells are thawed and multiplied according to the supplier's recommendations in T75 or T175 flasks pre-coated with 2 μg of fibronectin/[…] (CORNING) for HRGEC, HCMEC, HHSEC and BBMEC, or 2 μg poly-L-lysin/cm^2 (Caltag SC-0403) for HRPTEpiC and HA, or 15 mL/flask 175 cm^2 gelatin-based solution (Cellbiologics) in the presence of endothelial cell supplemented growth medium ECM (P60104, INNOPROT, Caltag, SC-1001) for HRGEC, HCMEC, HHSEC, RPKGEC or BBMEC, or astrocyte cell supplemented growth medium AM (Caltag SC-1801) for HA or epithelial cell supplemented growth medium EpiCM (P60106, INNOPROT) for HRPTEpiC, at 37° C. under 5% CO2 and saturated humidity until their confluency. They are then harvested by trypsinization according to the method described by the supplier for exactly 5 minutes and then reseeded in new flasks a maximum of three times.
To carry out the oxygen and glucose deprivation test followed by their replenishment, the cells will be seeded in 96-well black plates with transparent flat bottom (GREINER). Once a sufficient number of cells has been obtained to allow seeding of 2000 to 15000 cells per well of 96-well plates depending on the cell type, the cells are seeded in these 96-well plates previously coated with an extracellular matrix as listed above for the flasks. The cells are cultured for 5 to 8 days according to the cell type, in the presence of the same growth medium as in the flask as described above except for HRGEC and HRPTEpiC for which DMEM (DUTSCHER) with 1 g/L of supplemented glucose is used, at 37° C. under 5% CO2 and saturated humidity to obtain confluency.
On the first day of oxygen and glucose deprivation, (5th, 6th, 7th or 8th day of culture), the culture conditions are drastically changed. The medium of all plates is removed and replaced by DMEM (DUTSCHER) medium without glucose and supplemented only with 1% penicillin-streptomycin (DUTSCHER). Anidulafungin or micafungin dissolved in dimethyl sulfoxide (DMSO) is then added to each well at the desired concentration, resulting in a maximum of 1% DMSO, and the plates are placed under hypoxia at <1% 02 and 5% CO2 at 37° C. for 24 hours of culture. Each compound was tested in a concentration range.
After 24 hours, the growth medium is changed and replaced by a richer medium, DMEM (DUTSCHER) at 1 g/L glucose and 2% FBS (INNOPROT) and 1% penicillin-streptomycin (DUTSCHER). These media will have been pre-equilibrated at 37° C. in advance. The cells are then returned to culture at 37° C. under 20% 02 and 5% CO2 for 22h.
After 22 hours of reoxygenation, the potential protective effect of anidulafungin or micafungin is measured by a cell viability test using calcein AM (CORNING), which is a dye substrate. The calcein AM can easily cross the cell membrane of the viable cells. The AM ester groups mask the part of the molecule that chelates calcium. Once inside the cells, the (non-fluorescent) calcein AM is hydrolyzed to (fluorescent) calcein by endogenous esterases. The resulting calcein molecule binds to calcium inside the cell and remains trapped inside the cell. These molecules emit strong green fluorescence when subjected to […] of a particular wavelength (495 nm). Since dead cells lack esterase activity, only living cells are labelled.
This cell viability test is performed in two steps. […]

CCCCCOc1ccc(-c2cc(-c3ccc(C(=O)N[C@H]4C[C@@H](O)[C@@H](O)NC(=O)[C@@H]5[C@@H](O)[C@@H](C)CN5C(=O)[C@H]([C@H](O)CC(N)=O)NC(=O)[C@H]([C@H](O)[C@@H](O)c5ccc(O)c(OS(=O)(=O)O)c5)NC(=O)[C@@H]5C[C@@H](O)CN5C(=O)[C@H]([C@@H](C)O)NC4=O)cc3)no2)cc1 [Micafungin, {5-[(1S,2S)-2-[(3S,6S,9S,11R,15S,18S,20R,21R,24S,25S,26S)-3-[(1R)-2-carbamoyl-1-hydroxyethyl]-11,20,21,25-tetrahydroxy-15-[(1R)-1-hydroxyethyl]-26-methyl-2,5,8,14,17,23-hexaoxo-18-[(4-{5-[4-(pentyloxy)phenyl]-1,2-oxazol-3-yl}benzene)amido]-1,4,7,13,16,22-hexaazatricyclo[22.3.0.0]heptacosan-6-yl]-1,2-dihydroxyethyl]-2-hydroxyphenyl}oxidanesulfonic acid] (X1-[Orn(4R-OH,5R-OH)]T[Hyp][hTyr(3S-OH,4S-OH,3'-OSO3H)][Gln(3R-OH)][Pro(3S-OH,4S-Me)]; lactam 1-C)
Globalfluo assay 1 ([Micafungin] log μM 0): 4455401 arbitrary units
Globalfluo assay 2 ([Micafungin] log μM 0): 4660836 arbitrary units
Globalfluo assay 3 ([Micafungin] log μM 0): 4639734 arbitrary units
Mean globalfluo ([Micafungin] log μM 0): 4585324 arbitrary units
Survival rate (%) ([Micafungin] log μM 0): −3%
Globalfluo assay 1 ([Micafungin] log μM 0.4771213): 5103911 arbitrary units
Globalfluo assay 2 ([Micafungin] log μM 0.4771213): 5348145 arbitrary units
Globalfluo assay 3 ([Micafungin] log μM 0.4771213): 4886218 arbitrary units
Mean globalfluo ([Micafungin] log μM 0.4771213): 5112758 arbitrary units
Survival rate (%) ([Micafungin] log μM 0.4771213): 0%
Globalfluo assay 1 ([Micafungin] log μM 0.7781513): 5452718 arbitrary units
Globalfluo assay 2 ([Micafungin] log μM 0.7781513): 4992821 arbitrary units
Globalfluo assay 3 ([Micafungin] log μM 0.7781513): 6254079 arbitrary units
Mean globalfluo ([Micafungin] log μM 0.7781513): 5566539 arbitrary units
Survival rate (%) ([Micafungin] log μM 0.7781513): 3%
Globalfluo assay 1 ([Micafungin] log μM 0.90309): 5299685 arbitrary units
Globalfluo assay 2 ([Micafungin] log μM 0.90309): 5787047 arbitrary units
Globalfluo assay 3 ([Micafungin] log μM 0.90309): 5397439 arbitrary units
Mean globalfluo ([Micafungin] log μM 0.90309): 5494724 arbitrary units
Survival rate (%) ([Micafungin] log μM 0.90309): 3%
Globalfluo assay 1 ([Micafungin] log μM 1): 5522064 arbitrary units
Globalfluo assay 2 ([Micafungin] log μM 1): 5305822 arbitrary units
Globalfluo assay 3 ([Micafungin] log μM 1): 6090892 arbitrary units
Mean globalfluo ([Micafungin] log μM 1): 5639593 arbitrary units
Survival rate (%) ([Micafungin] log μM 1): 3%
Globalfluo assay 1 ([Micafungin] log μM 1.079181): 5365305 arbitrary units
Globalfluo assay 2 ([Micafungin] log μM 1.079181): 5914359 arbitrary units
Globalfluo assay 3 ([Micafungin] log μM 1.079181): 4948085 arbitrary units
Mean globalfluo ([Micafungin] log μM 1.079181): 5409250 arbitrary units
Survival rate (%) ([Micafungin] log μM 1.079181): 2%
Globalfluo assay 1 ([Micafungin] log μM 1.176091): 5886475 arbitrary units
Globalfluo assay 2 ([Micafungin] log μM 1.176091): 5800515 arbitrary units
Globalfluo assay 3 ([Micafungin] log μM 1.176091): 6203727 arbitrary units
Mean globalfluo ([Micafungin] log μM 1.176091): 5963572 arbitrary units
Survival rate (%) ([Micafungin] log μM 1.176091): 5%
Globalfluo assay 1 ([Micafungin] log μM 1.30103): 6537106 arbitrary units
Globalfluo assay 2 ([Micafungin] log μM 1.30103): 5661218 arbitrary units
Globalfluo assay 3 ([Micafungin] log μM 1.30103): 6414894 arbitrary units
Mean globalfluo ([Micafungin] log μM 1.30103): 6204406 arbitrary units
Survival rate (%) ([Micafungin] log μM 1.30103): 7%
Globalfluo assay 1 ([Micafungin] log μM 1.477121): 5692141 arbitrary units
Globalfluo assay 2 ([Micafungin] log μM 1.477121): 6434487 arbitrary units
Globalfluo assay 3 ([Micafungin] log μM 1.477121): 7272557 arbitrary units
Mean globalfluo ([Micafungin] log μM 1.477121): 6466395 arbitrary units
Survival rate (%) ([Micafungin] log μM 1.477121): 8%
Globalfluo assay 1 ([Micafungin] log μM −0.5228788): 4445501 arbitrary units
Globalfluo assay 2 ([Micafungin] log μM −0.5228788): 5528681 arbitrary units
Globalfluo assay 3 ([Micafungin] log μM −0.5228788): 4443191 arbitrary units
Mean globalfluo ([Micafungin] log μM −0.5228788): 4805791 arbitrary units
Survival rate (%) ([Micafungin] log μM −0.5228788): −1%
Globalfluo assay 1 ([Micafungin] log μM −1): 4527783 arbitrary units
Globalfluo assay 2 ([Micafungin] log μM −1): 4062591 arbitrary units
Globalfluo assay 3 ([Micafungin] log μM −1): 5413646 arbitrary units
Mean globalfluo ([Micafungin] log μM −1): 4668007 arbitrary units
Survival rate (%) ([Micafungin] log μM −1): −2%
Globalfluo assay 1 ([Micafungin] log μM −2): 4648220 arbitrary units
Globalfluo assay 2 ([Micafungin] log μM −2): 3959524 arbitrary units
Globalfluo assay 3 ([Micafungin] log μM −2): 4368024 arbitrary units
Mean globalfluo ([Micafungin] log μM −2): 4325256 arbitrary units
Survival rate (%) ([Micafungin] log μM −2): −4%
